The text below walks through data of ChEMBL document CHEMBL5223182, “Inhibition of HIV-1 Protease by a Boronic Acid with High Oxidative Stability” (ACS Med Chem Lett, 2023).

Broadly, the Ki is a measure of affinity in units of concentration, obtained from inhibition or displacement. The low end stands for higher affinity, the high end for lower affinity.

A short description of data set [1]: Oxidative stability of compound in PBS by UV visible spectrophotometer analysis. The data set is classed as physicochemical. The conditions noted are these: buffer.
Data set [2] addresses T1, Human immunodeficiency virus type 1 protease (Human immunodeficiency virus 1, UniProt Q72874). Description: Inhibition of HIV-1 protease.
Data set [3] is described as follows: Oxidative stability in sodium phosphate buffer assessed as relative rate constant. It is filed as physicochemical.
Another data set has as its target Protease (Human immunodeficiency virus 1, UniProt Q9YQ12, D30N). As to the kind of experiment: Inhibition of HIV-1 protease D30N mutant.
Data set [4] is described as follows: Oxidative stability in sodium phosphate buffer assessed as observed rate constant. The data set is classed as physicochemical.
The target in data set [5] is T1, Human immunodeficiency virus type 1 protease. Description: Inhibition of HIV-1 protease by fluorescence assay.

Sequence of Protease (Q9YQ12 entry or part of it D30N): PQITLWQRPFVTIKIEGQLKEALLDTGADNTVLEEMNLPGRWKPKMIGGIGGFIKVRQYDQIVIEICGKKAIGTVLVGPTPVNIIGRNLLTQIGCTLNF

`CC(C)CN(C[C@@H](O)[C@H](Cc1ccccc1)NC(=O)O[C@H]1CO[C@H]2OCC[C@H]21)S(=O)(=O)c1ccc2c(c1)C(=O)O[B-]2(O)O`: the K in data set [1] amounted to 0.00015 M⁻¹ s⁻¹; in data set [3], 0.021; in data set [4] it was 0.0026 M⁻¹ s⁻¹. The Ki in data set [2] turned out to be 10 pM; on Protease it was 7 pM.

For the molecule `CC(C)CN(C[C@@H](O)[C@H](Cc1ccccc1)NC(=O)O[C@H]1CO[C@H]2OCC[C@H]21)S(=O)(=O)c1ccc(B(O)O)cc1`, the values for the K in data set [1], in data set [3] and in data set [4] were 2.4 M⁻¹ s⁻¹, 1 and 0.12 M⁻¹ s⁻¹, respectively. This molecule also returned a Ki in data set [5] of 0.5 pM.
